The text below walks through data of PMC6736568, “Discovery of Novel Anti-cryptosporidial Activities From Natural Products by in vitro High-Throughput Phenotypic Screening” (Frontiers in Microbiology, 2019).

Structures are written as SMILES. Like-named read-outs stand apart in the source and are kept apart here.

In one series the test system is Cryptosporidium parvum. Briefly: qRT-PCR assay of the growth of C. parvum in vitro in HCT-8 host cells (primary and secondary screening, EC50). The class given is cell-based. The conditions noted are these: Cryptosporidium parvum. A general note: Quantitative PCR measures a nucleic acid by following its amplification.
Setting [1] is: HCT-8, primary screening at 10 uM, read-out: Inhibition (%).
Where [2] appears, read: primary screening at 10 uM, treated vs control.
[3] abbreviates: HCT-8, secondary screening at 3.3 uM, read-out: % Inhibition (3.3 uM).

Usually inhibition stands for the drop in the measured response relative to a control, in per cent. `NC[C@H]1O[C@H](O[C@H]2[C@H](O)[C@@H](O[C@H]3O[C@H](CO)[C@@H](O)[C@H](N)[C@H]3O)[C@H](N)C[C@@H]2N)[C@H](N)C[C@@H]1O` [TOBRAMYCIN]: in the series “in vitro” (human), the cytotoxicity at 41 h, 10 µM is -40.8%. In addition, in the series with HCT-8 host cells (Hs18S) (human, 41 h, 10 μM), the “Hs18S ΔCT” value is given as -0.49. The inhibition at 10 µM in the series with Cryptosporidium parvum (setting [1]) was 4.08%.

On to `C[C@H]1CC[C@]2(NC1)O[C@H]1C[C@H]3[C@@H]4CC[C@H]5C[C@@H](O[C@@H]6O[C@H](CO)[C@H](O[C@@H]7O[C@H](CO)[C@@H](O)[C@H](O[C@@H]8OC[C@@H](O)[C@H](O)[C@H]8O)[C@H]7O[C@@H]7O[C@H](CO)[C@@H](O)[C@H](O)[C@H]7O)[C@H](O)[C@H]6O)CC[C@]5(C)[C@H]4CC[C@]3(C)[C@H]1[C@@H]2C` [TOMATINE], for which, in the series “in vitro”, the cytotoxicity at 10 µM amounted to 2.7%. Also, the “Hs18S ΔCT” value with HCT-8 host cells (Hs18S) (setting [2]) was 0.04. For the same molecule, in the series with Cryptosporidium parvum (setting [1]), the inhibition at 10 µM came to 92.9%. The inhibition at 3.3 µM in the series with Cryptosporidium parvum (setting [3]) was found to be 25%.

On to `CC(C)c1c(O)ccc2c1CC[C@H]1C(C)(C)CCC[C@]21C` [TOTAROL], for which, in “in vitro” (human), the cytotoxicity at 41 h, 10 µM was -28.4%. Besides, the “Hs18S ΔCT” value in the series on HCT-8 host cells (Hs18S) (human, 41 h, 10 μM) is -0.36. Besides, the inhibition at 10 µM in the series with Cryptosporidium parvum (setting [1]) was -9.45%.

On to `CC1=C(/C=C/C(C)=C/C=C/C(C)=C/C(=O)O)C(C)(C)CCC1` [TRETINOIN], for which the cytotoxicity at 41 h, 10 µM in “in vitro” (human) is -21.5%. The “Hs18S ΔCT” value in the series with HCT-8 host cells (Hs18S) (human, 41 h, 10 μM) is -0.28. Moreover, the inhibition at 10 µM in the series with Cryptosporidium parvum (setting [1]) is 7.49%.

For `CC(=O)Oc1ccc(/C=C/c2cc(OC(C)=O)cc(OC(C)=O)c2)cc1` [TRIACETYLRESVERATROL], in the series “in vitro”, the cytotoxicity at 10 µM is 12.4%. Further, the “Hs18S ΔCT” value in the series on HCT-8 host cells (Hs18S) (setting [2]) was determined as 0.19. The inhibition at 10 µM with Cryptosporidium parvum (setting [1]) is -64.8%.

Regarding `C[n+]1cccc(C(=O)[O-])c1` [TRIGONELLINE], in the series “in vitro” (human), the cytotoxicity at 41 h, 10 µM is 2.2%. In addition, in the series with HCT-8 host cells (Hs18S) (human, 41 h, 10 μM), the “Hs18S ΔCT” value amounted to 0.03. In addition, the inhibition at 10 µM with Cryptosporidium parvum (setting [1]) was -29.9%.

For `CC(C)c1ccc2c(c1O)CC[C@H]1C3=C(CC[C@]21C)C(=O)OC3` [TRIPTOPHENOLIDE], the cytotoxicity at 41 h, 10 µM in the series “in vitro” (human) is -22.1%. Also, the “Hs18S ΔCT” value in the series on HCT-8 host cells (Hs18S) (human, 41 h, 10 μM) is on record as -0.29. For the same molecule, the inhibition at 10 µM with Cryptosporidium parvum (setting [1]) was -24.5%.

As to `NCCc1c[nH]c2ccccc12` [TRYPTAMINE], in “in vitro”, the cytotoxicity at 10 µM is -34.7%. The “Hs18S ΔCT” value in the series on HCT-8 host cells (Hs18S) (setting [2]) was -0.43. Moreover, the inhibition at 10 µM in the series with Cryptosporidium parvum (setting [1]) came out at 95.5%. For the same molecule, the inhibition at 3.3 µM with Cryptosporidium parvum (setting [3]) was found to be 12%.

For the molecule `N[C@@H](Cc1c[nH]c2ccccc12)C(=O)O` [TRYPTOPHAN], the cytotoxicity at 41 h, 10 µM in the series “in vitro” (human) was -68.2%. In the series on HCT-8 host cells (Hs18S) (human, 41 h, 10 μM), the “Hs18S ΔCT” value was -0.75. In the series on Cryptosporidium parvum (HCT-8), the inhibition at 10 µM is 85.5%. The inhibition at 3.3 µM in the series on Cryptosporidium parvum (HCT-8, read-out: % Inhibition (3.3 uM)) is 17%.

On to `NCCc1ccc(O)cc1` [TYRAMINE], for which the cytotoxicity at 10 µM in the series “in vitro” is -20.9%. Further, the “Hs18S ΔCT” value in the series with HCT-8 host cells (Hs18S) (human, 41 h, 10 μM) is recorded as -0.27. For the same molecule, in the series on Cryptosporidium parvum (setting [1]), the inhibition at 10 µM is -27.4%.

As to `O=c1ccc2ccc(O)cc2o1` [UMBELLIFERONE], the cytotoxicity at 10 µM in “in vitro” is -88.9%. In the series with HCT-8 host cells (Hs18S), the “Hs18S ΔCT” value was -0.92. The inhibition at 10 µM in the series with Cryptosporidium parvum (setting [1]) was -15.7%.

With `O=c1cc[nH]c(=O)[nH]1` [URACIL], the cytotoxicity at 41 h, 10 µM in “in vitro” (human) is -21.4%. Moreover, the “Hs18S ΔCT” value in the series on HCT-8 host cells (Hs18S) (setting [2]) is given as -0.28. Besides, in the series with Cryptosporidium parvum (setting [1]), the inhibition at 10 µM stood at 2.08%.

Regarding `O=c1ccn([C@@H]2O[C@H](CO)[C@@H](O)[C@H]2O)c(=O)[nH]1` [URIDINE], the cytotoxicity at 41 h, 10 µM in “in vitro” (human) is 1.4%. For the same molecule, the “Hs18S ΔCT” value in the series on HCT-8 host cells (Hs18S) (human, 41 h, 10 μM) came to 0.02. Also, the inhibition at 10 µM with Cryptosporidium parvum (setting [1]) amounted to 44.8%.

As for `COc1ccc(C(=O)CC(=O)O)c2c1C=CC(C)(C)O2` [URSINOIC ACID], the cytotoxicity at 41 h, 10 µM in the series “in vitro” (human) was -37.5%. Moreover, the “Hs18S ΔCT” value with HCT-8 host cells (Hs18S) (human, 41 h, 10 μM) is given as -0.46. In the series on Cryptosporidium parvum (setting [1]), the inhibition at 10 µM was determined as 14.2%.

For `C[C@H](CCC(=O)O)[C@H]1CC[C@H]2[C@@H]3CC[C@@H]4CCCC[C@]4(C)[C@H]3CC[C@]12C` [URSOCHOLANIC ACID], the cytotoxicity at 41 h, 10 µM in the series “in vitro” is -6.9%. Also, the “Hs18S ΔCT” value with HCT-8 host cells (Hs18S) (setting [2]) was -0.10. Moreover, the inhibition at 10 µM in the series on Cryptosporidium parvum (setting [1]) came out at 59.3%.

As to `C[C@H](CCC(=O)O)[C@H]1CC[C@H]2[C@@H]3[C@@H](O)C[C@@H]4C[C@H](O)CC[C@]4(C)[C@H]3CC[C@]12C` [URSODIOL], in “in vitro” (human), the cytotoxicity at 41 h, 10 µM is -10.9%. For the same molecule, the “Hs18S ΔCT” value in the series on HCT-8 host cells (Hs18S) (human, 41 h, 10 μM) was -0.15. In addition, the inhibition at 10 µM with Cryptosporidium parvum (setting [1]) is -41.7%.

Regarding `CC(=O)c1c(O)c(C)c(O)c2c1OC1=CC(=O)C(C(C)=O)C(=O)C12C` (stereo not drawn) [USNIC ACID], in the series “in vitro”, the cytotoxicity at 10 µM was -23.9%. The “Hs18S ΔCT” value in the series with HCT-8 host cells (Hs18S) (setting [2]) is -0.31. For the same molecule, the inhibition at 10 µM in the series with Cryptosporidium parvum (setting [1]) was determined as 18.8%.

Regarding `CCC(C)C(=O)O[C@@H]1C[C@@]2(C)[C@H](c3ccoc3)OC(=O)CC23OC2(C)O[C@]14[C@]1(C)[C@@H](CC(=O)OC)C5(C)CC1(O)[C@](O)(C5OC(=O)C1(C)OC1C)[C@@H](OC(C)=O)[C@]34O2` (stereo partly drawn) [UTILIN], the cytotoxicity at 41 h, 10 µM in the series “in vitro” (human) amounted to 4.2%. Moreover, the “Hs18S ΔCT” value in the series with HCT-8 host cells (Hs18S) (human, 41 h, 10 μM) stood at 0.06. Further, the inhibition at 10 µM in the series on Cryptosporidium parvum (setting [1]) amounted to 36.8%.

For the molecule `COc1ccc(C(=O)O)cc1OC` [VERATRIC ACID], the cytotoxicity at 10 µM in “in vitro” was -6.7%. In addition, the “Hs18S ΔCT” value with HCT-8 host cells (Hs18S) (setting [2]) is recorded as -0.09. Moreover, the inhibition at 10 µM in the series with Cryptosporidium parvum (setting [1]) is -10.7%.
